A short description of data set [1]: Solubility in selected aqueous solutions. In kind it is physicochemical. From the text:
The problem of poor water solubility is one of the factors that seriously restricts the preclinical application of BFA. Therefore, from the perspective of pharmaceutics, it is of great application value to explore safe and effective methods to improve its solubility. Based on the previous screening of commonly used solvents, solubilizers and co-solvents for BFA and its derivatives, we explored the solubility of CHNQD-01281, which was compared and assessed in selected aqueous solutions (Table 1). Saline or PBS were commonly used solvents, but the solubility of BFA or CHNQD-01281 was less than 1 mg/mL when used alone. No significant improvement in solubility was observed after the addition of DMSO or PEG400. […] More importantly, the solution system of CHNQD-01281 with saline/DMSO/solutol HS-15 (85/5/10) can fully meet the needs of follow-up experiments in vivo, such as pharmacodynamics, pharmacokinetics and safety evaluation.

In another data set the test system is T24 cells. Put plainly: MTT cell proliferation assay. It counts as cell-based, human. On the procedure:
(§1) Human tumor cell lines Eca-109, BEL-7402, BxPC-3, HCT-116, HT-29, T24, HCT-8, SGC-7901, DLD-1, TE-1, BT-549, MGC-803 and human hepatocyte cell line L-02 were cultured in Roswell Park Memorial Institute (RPMI) 1640. HuH-7 and SW-480 were cultured in Dulbecco’s modified Eagle’s medium (DMEM). J82, HepG2, Hela, U87 were cultured in Minimum Essential Medium (MEM). Murine bladder cancer cell line, MB49, was cultured in DMEM. The above-mentioned culture medium was provided by GIBCO (Grand Island, USA), contained 10% fetal bovine serum (PAN, Germany), 10 mg/mL of streptomycin, and 10 kU/mL penicillin (Beyotime, China).
(§2) Cells were seeded in 96-well plates and incubated with indicated concentrations of CHNQD-01281 for indicated periods. Next, medium was discarded and MTT (5 mg/mL) was added to each well. The cells were incubated at 37 °C for another 4 h. After that, supernatant was discarded, and DMSO was added and incubated at 37 °C for 15 min. Finally, absorbance was measured at 570 nm (Molecular Devices, USA).
To investigate whether CHNQD-01281 had selective inhibitory effect on cancer cell lines, a variety of human tumor cell lines were assayed by MTT, such as bladder cancer cell lines (J82 and T24), colorectal cancer cell lines (HCT-116, HT-29, HCT-8, DLD-1 and SW-480), cervical cancer cell line (Hela), esophageal cancer cell lines (TE-1 and Eca-109), breast cancer cell line (BT-549), gastric carcinoma cell lines (MGC-803 and SGC-7901), glioma cell line (U87), pancreatic carcinoma cell line (BxPC-3) and hepatocellular carcinoma cell lines (Hep G2, BEL-7402 and HuH-7) (Fig. 2A).
On the technique in general: Formazan colour is commonly taken as a measure of viable cells.

Data set [2] concerns human hepatocyte cell line L-02. Put plainly: MTT cell proliferation assay. In kind it is cell-based. The conditions noted are these: L-02, MTT, 72 h. On the procedure:
as §1, §2
Thus, the bladder cancer cell lines J82 and T24 were further investigated and treated by CHNQD-01281 under gradient concentrations (0.031−1.00 µmol/L) and times (24, 72 and 120 h) to measure proliferation activities (Fig. 2B). However, the inhibition of T24 or J82 cell lines by CHNQD-01281 was less than 50% even at the highest concentration of 1 µmol/L for 24 h. […] Therefore, CHNQD-01281 has a higher selectivity index compared to BFA.

≈ marks a conversion by molar mass, not a printed value.

With `C[C@H]1CCC/C=C/[C@@H]2C[C@H](O)C[C@H]2[C@H](O)/C=C/C(=O)O1` [BFA, Brefeldin A, reference compound], the solubility in data set [1] (25 °C, pH 7.4, aqueous with cosolvent or surfactant or cyclodextrin, No. 2: Saline/DMSO 95/5, pH 7.4, 25 °C) is under 1000 µg/mL; in data set [1] (25 °C, pH 7.4, aqueous with cosolvent or surfactant or cyclodextrin, No. 3: PBS/DMSO 95/5, pH 7.4, 25 °C), under 1000 µg/mL; in data set [1] (25 °C, pH 7.4, aqueous with cosolvent or surfactant or cyclodextrin, No. 4: Saline/PEG400 95/5, pH 7.4, 25 °C), under 1000 µg/mL; in data set [1] (25 °C, pH 7.4, aqueous with cosolvent or surfactant or cyclodextrin, No. 5: Saline/PEG400 80/20, pH 7.4, 25 °C), under 1000 µg/mL; in data set [1] (25 °C, pH 7.4, aqueous with cosolvent or surfactant or cyclodextrin, No. 6: Saline/DMSO/solutol HS-15 85/5/10, pH 7.4, 25 °C) it was 1000 to 1500 µg/mL (≈ 3.57 to 5.35 mM); in data set [1] (25 °C, pH 7.4, aqueous with cosolvent or surfactant or cyclodextrin, No. 7: Saline/solutol HS-15 95/5, pH 7.4, 25 °C) it was under 1000 µg/mL. The solubility in data set [1] (25 °C, pH 7.4, aqueous with cosolvent or surfactant or cyclodextrin, No. 8: Saline/solutol HS-15 90/10, pH 7.4, 25 °C) was under 1000 µg/mL; in data set [1] (25 °C, pH 7.4, saline or isotonic, No. 1: Saline (0.9% NaCl) 100, pH 7.4, 25 °C), under 1000 µg/mL; in data set [1] (Saline or PBS used alone), under 1000 µg/mL. For the same molecule, the concentration for half-maximal inhibition (IC50) in the data set on T24 cells (Homo sapiens, T-24, T24, MTT, 72 h) came to 22 nM; in data set [2], 42 nM. In addition, the “SI (selectivity index)” value in the data set on T24 cells (L-02 versus T24) worked out at 1.91.

The term solubility denotes the concentration that dissolves in the medium under given conditions. A lower solubility goes with a poorly soluble substance. The term IC50 denotes the concentration that inhibits the measured activity by half. High values mean a need for much substance, low ones inhibition by little substance.

Source of the values: PMC11358582, “Discovery of a potential bladder cancer inhibitor CHNQD-01281 by regulating EGFR and promoting infiltration of cytotoxic T cells” (Marine Life Science & Technology, 2024).
